{"source": "ChEMBL document CHEMBL3525928", "about": "(Drug Metab Dispos, 2011)", "key": {"Hepatocyte [1]": {"test_system": "Hepatocyte", "experiment": "Drug uptake in sandwich-cultured human hepatocytes lot Hu4165 at 0.05 uM at 37 degC for 5 mins by scintillation spectroscopy in presence of 50 uM FCCP mitochondrial uncouplers (reference value: 100 +/- 3.1 to 100 +/- 7.0%)", "assay_type": "ADME, cell-based", "parameters": "interact cpd dose 50 uM"}, "Hepatocyte [2]": {"test_system": "Hepatocyte", "experiment": "Uptake clearance in sandwich-cultured human hepatocytes lot Hu4165 […] measured per mg of protein at 0.05 to 1 uM at 37 degC on day 5 by scintillation spectroscopy", "assay_type": "ADME, cell-based"}, "Hepatocyte [3]": {"test_system": "Hepatocyte", "conditions": "human, hepatocytes, 1 µM; call rule not given here"}, "Hepatocyte [4]": {"test_system": "Hepatocyte", "experiment": "Drug uptake in sandwich-cultured human hepatocytes measured per mg of protein at 0.05 to 10 uM at 37 degC by Michaelis-Menten kinetics/scintillation spectroscopy", "assay_type": "ADME, cell-based"}, "Hepatocyte [5]": {"test_system": "Hepatocyte", "conditions": "human, hepatocytes, 5 min, 0.05 µM"}, "Hepatocyte [6]": {"test_system": "Hepatocyte", "conditions": "human, hepatocytes, 5 min, 0.05 µM", "remark": "listed apart in the source"}, "Hepatocyte [7]": {"test_system": "Hepatocyte", "conditions": "human, hepatocytes, 5 min, 0.05 µM", "remark": "listed apart in the source"}, "Hepatocyte [8]": {"test_system": "Hepatocyte", "experiment": "Drug uptake in sandwich-cultured human hepatocytes measured per mg of protein at 0.05 uM at 37 degC after 5 mins by scintillation spectroscopy", "assay_type": "ADME, cell-based"}, "Hepatocyte [9]": {"test_system": "Hepatocyte", "experiment": "Uptake clearance in sandwich-cultured human hepatocytes lot Hu4165 […] measured per mg of protein at 0.05 to 1 uM at 37 degC after 0.5 to 2 mins by scintillation spectroscopy in presence of 100 uM rifamycin SV", "assay_type": "ADME, cell-based"}, "[10]": {"experiment": "Drug uptake in sandwich-cultured human hepatocytes at 0.05 to 10 uM at 37 degC by Michaelis-Menten kinetics/scintillation spectroscopy", "assay_type": "ADME, cell-based, Hepatocyte"}, "Hepatocyte [11]": {"test_system": "Hepatocyte", "conditions": "human, hepatocytes, 5 min, 0.05 µM", "remark": "listed apart in the source"}, "Hepatocyte [12]": {"test_system": "Hepatocyte", "conditions": "human, hepatocytes, 5 min, 0.05 µM", "remark": "listed apart in the source"}, "Hepatocyte [13]": {"test_system": "Hepatocyte", "conditions": "human, hepatocytes, 5 min, 0.05 µM", "remark": "listed apart in the source"}, "Hepatocyte [14]": {"test_system": "Hepatocyte", "experiment": "Drug uptake in sandwich-cultured human hepatocytes measured per mg of protein at 0.05 uM at 4 degC after 5 mins by scintillation spectroscopy", "assay_type": "ADME, cell-based"}, "Hepatocyte [15]": {"test_system": "Hepatocyte", "experiment": "Drug uptake in sandwich-cultured human hepatocytes lot Hu4165 at 0.05 uM at 37 degC for 5 mins by scintillation spectroscopy in presence of 500 uM digoxin (1% DMSO) cardiac glycosides (reference value: 100 +/- 3.1 to 100 +/- 7.0%)", "assay_type": "ADME, cell-based"}, "Hepatocyte [16]": {"test_system": "Hepatocyte", "conditions": "human, hepatocytes, 5 min, 0.05 µM", "remark": "listed apart in the source"}, "Hepatocyte [17]": {"test_system": "Hepatocyte", "experiment": "Uptake clearance in sandwich-cultured human hepatocytes measured per mg of protein at 0.05 to 10 uM at 37 degC by scintillation spectroscopy", "assay_type": "ADME, cell-based"}, "Hepatocyte [18]": {"test_system": "Hepatocyte", "conditions": "human, hepatocytes, 1 µM", "remark": "listed apart in the source"}, "Hepatocyte [19]": {"test_system": "Hepatocyte", "conditions": "human, hepatocytes, 5 min, 0.05 µM", "remark": "listed apart in the source"}, "Hepatocyte [20]": {"test_system": "Hepatocyte", "conditions": "human, hepatocytes, 5 min, 0.05 µM", "remark": "listed apart in the source"}, "Hepatocyte [21]": {"test_system": "Hepatocyte", "conditions": "human, hepatocytes, 5 min, 0.05 µM", "remark": "listed apart in the source"}, "Hepatocyte [22]": {"test_system": "Hepatocyte", "experiment": "Drug uptake in sandwich-cultured human hepatocytes lot Hu4165 at 0.05 uM at 37 degC for 5 mins by scintillation spectroscopy in presence of 100 uM rifampicin OATP substrate/inhibitor (reference value: 100 +/- 3.1 to 100 +/- 7.0%)", "assay_type": "ADME, cell-based", "parameters": "interact cpd dose 100 uM"}, "Hepatocyte [23]": {"test_system": "Hepatocyte", "experiment": "Drug uptake in sandwich-cultured human hepatocytes lot Hu4165 at 0.05 uM at 37 degC for 5 mins by scintillation spectroscopy in presence of 100 uM digoxin cardiac glycosides (reference value: 100 +/- 3.1 to 100 +/- 7.0%)", "assay_type": "ADME, cell-based"}, "[24]": {"experiment": "Drug excretion in bile (unknown origin)", "assay_type": "ADME, tissue-based", "conditions": "human, read-out: Drug excretion"}, "Hepatocyte [25]": {"test_system": "Hepatocyte", "experiment": "Drug uptake in sandwich-cultured human hepatocytes lot Hu4165 at 0.05 uM at 37 degC for 5 mins by scintillation spectroscopy in presence of 100 uM BSP A OATP and […] inhibitor (reference value: 100 +/- 3.1 to 100 +/- 7.0%)", "assay_type": "ADME, cell-based", "parameters": "interact cpd dose 100 uM"}, "[26]": {"experiment": "Drug excretion in urine (unknown origin)", "assay_type": "ADME, tissue-based", "conditions": "human, read-out: Drug excretion"}, "Hepatocyte [27]": {"test_system": "Hepatocyte", "experiment": "Drug uptake in sandwich-cultured human hepatocytes at 0.05 uM at 37 degC by scintillation spectroscopy", "assay_type": "ADME, cell-based"}, "Hepatocyte [28]": {"test_system": "Hepatocyte", "conditions": "human, hepatocytes, 5 min, 0.05 µM", "remark": "listed apart in the source"}, "Hepatocyte [29]": {"test_system": "Hepatocyte", "conditions": "human, hepatocytes, 5 min, 0.05 µM", "remark": "listed apart in the source"}, "[30]": {"experiment": "Drug uptake in rat hepatocytes", "assay_type": "ADME, cell-based, Hepatocyte"}, "Hepatocyte [31]": {"test_system": "Hepatocyte", "conditions": "human, hepatocytes, 5 min, 0.05 µM", "remark": "listed apart in the source"}, "Hepatocyte [32]": {"test_system": "Hepatocyte", "conditions": "human, hepatocytes, 5 min, 0.05 µM", "remark": "listed apart in the source"}, "OATP1B3 [33]": {"molecular_target": "T1, OATP1B3 (Homo sapiens, UniProt Q9NPD5)", "T1 sequence (Q9NPD5 whole entry)": "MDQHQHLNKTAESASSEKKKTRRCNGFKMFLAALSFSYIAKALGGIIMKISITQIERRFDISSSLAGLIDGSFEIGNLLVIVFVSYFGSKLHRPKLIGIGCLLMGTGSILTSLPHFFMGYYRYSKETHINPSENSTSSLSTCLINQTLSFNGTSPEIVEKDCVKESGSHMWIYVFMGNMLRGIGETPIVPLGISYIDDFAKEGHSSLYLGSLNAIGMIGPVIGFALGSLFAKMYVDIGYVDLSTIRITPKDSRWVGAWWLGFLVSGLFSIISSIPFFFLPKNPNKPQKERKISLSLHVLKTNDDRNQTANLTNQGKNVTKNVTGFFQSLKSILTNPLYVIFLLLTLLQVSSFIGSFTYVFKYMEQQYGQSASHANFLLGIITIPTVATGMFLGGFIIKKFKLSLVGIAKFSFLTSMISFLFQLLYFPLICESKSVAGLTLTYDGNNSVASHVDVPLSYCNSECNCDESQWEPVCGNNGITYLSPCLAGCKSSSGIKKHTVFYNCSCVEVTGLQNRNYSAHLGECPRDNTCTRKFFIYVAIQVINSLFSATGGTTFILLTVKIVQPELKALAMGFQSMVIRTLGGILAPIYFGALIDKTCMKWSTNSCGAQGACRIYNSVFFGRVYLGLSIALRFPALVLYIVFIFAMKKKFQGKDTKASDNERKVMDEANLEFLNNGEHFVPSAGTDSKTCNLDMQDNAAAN", "experiment": "Drug uptake ratio assessed as enzyme-mediated uptake in HEK293 cells expressing human OATP1B3 at 10 uM at 37 degC for 3 mins by liquid scintillation spectroscopy relative to wild type", "assay_type": "ADME, cell-based"}, "OATP1B3 [34]": {"molecular_target": "T1, OATP1B3", "experiment": "Drug uptake ratio assessed as enzyme-mediated uptake in HEK293 cells expressing human OATP1B3 at 10 uM at 37 degC for 3 mins cells pretreated with sodium butyrate by liquid scintillation spectroscopy relative to wild type", "assay_type": "ADME, cell-based"}, "OATP1B3 [35]": {"molecular_target": "T1, OATP1B3", "experiment": "Drug uptake ratio assessed as enzyme-mediated uptake in HEK293 cells expressing human OATP1B3 at 1 uM at 37 degC for 3 mins cells pretreated with sodium butyrate by liquid scintillation spectroscopy relative to wild type", "assay_type": "ADME, cell-based"}, "OATP1B3 [36]": {"molecular_target": "T1, OATP1B3", "experiment": "Drug uptake ratio assessed as enzyme-mediated uptake in HEK293 cells expressing human OATP1B3 at 1 uM at 37 degC for 3 mins by liquid scintillation spectroscopy relative to wild type", "assay_type": "ADME, cell-based"}}}
{"smiles": "C[C@H]1O[C@@H](O[C@H]2[C@@H](O)C[C@H](O[C@H]3[C@@H](O)C[C@H](O[C@H]4CC[C@@]5(C)[C@H](CC[C@@H]6[C@@H]5C[C@@H](O)[C@]5(C)[C@@H](C7=CC(=O)OC7)CC[C@]65O)C4)O[C@@H]3C)O[C@@H]2C)C[C@H](O)[C@@H]1O", "note": "[DIGOXIN]", "values": [{"measurement": "Drug uptake", "setting": "Hepatocyte [1]", "result": 63.8, "unit": "%"}, {"measurement": "CLup", "setting": "Hepatocyte [2]", "result": 3.6, "unit": "µL/min/g"}, {"measurement": "CLup", "setting": "Hepatocyte [3]", "result": 1.88, "unit": "µL/min/g"}, {"measurement": "Vmax", "setting": "Hepatocyte [4]", "result": 4.49, "unit": "pmol/min"}, {"measurement": "Drug uptake", "setting": "Hepatocyte [5]", "result": 115, "unit": "%"}, {"measurement": "Drug uptake", "setting": "Hepatocyte [6]", "result": 163, "unit": "%"}, {"measurement": "Drug uptake", "setting": "Hepatocyte [7]", "result": 79.2, "unit": "%"}, {"measurement": "Drug uptake", "setting": "Hepatocyte [8]", "result": 153, "unit": "fmol/min"}, {"measurement": "CLup", "setting": "Hepatocyte [9]", "result": 4.53, "unit": "µL/min/g"}, {"measurement": "Km at up to 10 µM", "setting": "[10]", "result": 2.39, "unit": "µM"}, {"measurement": "Drug uptake", "setting": "Hepatocyte [11]", "result": 55.4, "unit": "%"}, {"measurement": "Drug uptake", "setting": "Hepatocyte [12]", "result": 158, "unit": "%"}, {"measurement": "Drug uptake", "setting": "Hepatocyte [13]", "result": 50.5, "unit": "%"}, {"measurement": "Drug uptake", "setting": "Hepatocyte [14]", "result": 1.33, "unit": "fmol/min"}, {"measurement": "Drug uptake", "setting": "Hepatocyte [15]", "result": 55.5, "unit": "%"}, {"measurement": "Drug uptake", "setting": "Hepatocyte [16]", "result": 45, "unit": "%"}, {"measurement": "CLup", "setting": "Hepatocyte [17]", "result": 1.88, "unit": "µL/min/g"}, {"measurement": "CLup", "setting": "Hepatocyte [18]", "result": 4.06, "unit": "µL/min/g"}, {"measurement": "Drug uptake", "setting": "Hepatocyte [19]", "result": 63.1, "unit": "%"}, {"measurement": "Drug uptake", "setting": "Hepatocyte [20]", "result": 90.5, "unit": "%"}, {"measurement": "Drug uptake", "setting": "Hepatocyte [21]", "result": 87.4, "unit": "%"}, {"measurement": "Drug uptake", "setting": "Hepatocyte [22]", "result": 120, "unit": "%"}, {"measurement": "Drug uptake", "setting": "Hepatocyte [23]", "result": 48.9, "unit": "%"}, {"measurement": "dose excreted", "setting": "[24]", "result": 30, "unit": "%"}, {"measurement": "Drug uptake", "setting": "Hepatocyte [25]", "result": 113, "unit": "%"}, {"measurement": "dose excreted", "setting": "[26]", "result": 50, "unit": "%"}, {"measurement": "Drug uptake", "setting": "Hepatocyte [27]", "result": "Active"}, {"measurement": "Drug uptake", "setting": "Hepatocyte [28]", "result": 89.9, "unit": "%"}, {"measurement": "Drug uptake", "setting": "Hepatocyte [29]", "result": 67.5, "unit": "%"}, {"measurement": "Km", "setting": "[30]", "result": 0.18, "unit": "µM"}, {"measurement": "Drug uptake", "setting": "Hepatocyte [31]", "result": 110, "unit": "%"}, {"measurement": "Drug uptake", "setting": "Hepatocyte [32]", "result": 114, "unit": "%"}]}
{"smiles": "C[C@]12CC[C@@H]3c4ccc(O)cc4CC[C@H]3[C@@H]1CC[C@@H]2O[C@@H]1O[C@H](C(=O)O)[C@@H](O)[C@H](O)[C@H]1O", "note": "[ESTRADIOL 17B GLUCURONIDE]", "values": [{"measurement": "uptake ratio at 0.05 h, 10 µM", "setting": "OATP1B3 [33]", "result": 116}, {"measurement": "uptake ratio at 0.05 h, 10 µM", "setting": "OATP1B3 [34]", "result": 78}, {"measurement": "uptake ratio at 0.05 h, 1 µM", "setting": "OATP1B3 [35]", "result": 74}, {"measurement": "uptake ratio at 0.05 h, 1 µM", "setting": "OATP1B3 [36]", "result": 87}]}
